Reference: the NIST ThermoML archive (doi:10.1021/je050183a)

Columns and labels:
[1] = 101 kPa, Liquid; for viscosity: Capillary tube (Ostwald / Ubbelohde) method; for speed of sound: Linear variable-path acoustic interferometer; for mass density: Pycnometric method
[2] = refractive index (Na D-line) (dimensionless); settings: 298.15 K; 101.33 kPa; Liquid; Standard Abbe refractometry
[3] = xn = mol fraction of the nth substance listed; settings: 101 kPa, Liquid; for viscosity: Capillary tube (Ostwald / Ubbelohde) method; for speed of sound: Linear variable-path acoustic interferometer; for mass density: Pycnometric method
[4] = refractive index (Na D-line) (dimensionless); xn = mol fraction of the nth substance listed; settings: 298.15 K, 101 kPa, Liquid, Standard Abbe refractometry

CC1OC(C)OC(C)O1 (configuration not stated) [2,4,6-trimethyl-1,3,5-trioxane]
[1]
Settings	mass density [kg/m3]	speed of sound [m/s]	viscosity [mPa·s]
288.15 K	999.69	1217.7	1.374
298.15 K	988.35	1174.5	1.107

Settings	refractive index
[2]	1.4029

CCOC(=O)OCC [diethyl carbonate]
[1]
Settings	mass density [kg/m3]	speed of sound [m/s]	viscosity [mPa·s]
288.15 K	980.41	1225.6	0.868
298.15 K	969.15	1173.4	0.749

Settings	refractive index
[2]	1.383

CC1COC(=O)O1 (configuration not stated) [4-methyl-1,3-dioxolan-2-one] + CC1OC(C)OC(C)O1
[3], x2 = 0
Settings	mass density [kg/m3]	speed of sound [m/s]	viscosity [mPa·s]
288.15 K	1208.67	1478.4	3.086
298.15 K	1197.58	1442.3	2.499

Settings	refractive index
[4], x2 = 0	1.4203

CCOC(=O)OCC [diethyl carbonate] + CC1OC(C)OC(C)O1
[3], x2 = 0
Settings	mass density [kg/m3]	speed of sound [m/s]	viscosity [mPa·s]
288.15 K	980.41	1225.6	0.868
298.15 K	969.15	1173.4	0.749

Settings	refractive index
[4], x2 = 0	1.383

COC(=O)OC [dimethyl carbonate] + CC1OC(C)OC(C)O1
[3], x2 = 0
Settings	mass density [kg/m3]	speed of sound [m/s]	viscosity [mPa·s]
288.15 K	1076.43	1242	0.647
298.15 K	1063.1	1197.4	0.579

Settings	refractive index
[4], x2 = 0	1.366

CC1COC(=O)O1 (configuration not stated) [4-methyl-1,3-dioxolan-2-one]
[1]
Settings	mass density [kg/m3]	speed of sound [m/s]	viscosity [mPa·s]
288.15 K	1208.67	1478.4	3.086
298.15 K	1197.58	1442.3	2.499

Settings	refractive index
[2]	1.4203

COC(=O)OC [dimethyl carbonate]
[1]
Settings	mass density [kg/m3]	speed of sound [m/s]	viscosity [mPa·s]
288.15 K	1076.43	1242	0.647
298.15 K	1063.1	1197.4	0.579

Settings	refractive index
[2]	1.366

CC1OC(C)OC(C)O1 (configuration not stated) [2,4,6-trimethyl-1,3,5-trioxane] + CC1COC(=O)O1
[3]
Settings	mass density, 288.15 K [kg/m3]	mass density, 298.15 K [kg/m3]	speed of sound, 288.15 K [m/s]	speed of sound, 298.15 K [m/s]	viscosity, 288.15 K [mPa·s]	viscosity, 298.15 K [mPa·s]
x1 = 0.091	1181.68	1170.78	1451.8	1415	2.966	2.386
x1 = 0.2019	1151.81	1141.1	1420.2	1382.6	2.809	2.245
x1 = 0.3007	1127.63	1117.02	1392.9	1354.5	2.661	2.116
x1 = 0.4055	1104.07	1093.5	1364.7	1325.5	2.494	1.977
x1 = 0.5011	1084.21	1073.63	1339.7	1299.9	2.333	1.846
x1 = 0.6022	1064.71	1054.05	1314	1273.4	2.155	1.705
x1 = 0.7006	1046.98	1036.19	1289.8	1248.5	1.974	1.563
x1 = 0.8028	1029.73	–	1265.5	–	1.779	–
x1 = 0.9027	1014	–	1242.1	–	1.581	–
x1 = 1	999.69	–	1217.7	–	1.374	–

[4]
Settings	refractive index
x1 = 0.091	1.4188
x1 = 0.2019	1.4172
x1 = 0.3007	1.4157
x1 = 0.4055	1.4142
x1 = 0.5011	1.4127
x1 = 0.6022	1.4111
x1 = 0.7006	1.4094
